{"source": "ChEMBL document CHEMBL3046648", "about": "“Herbicidally Active N-(1-Arylethenyl)-2-chloroacetamides Bearing an Alkyloxyalkyl Moiety” (1991)", "assay_type_in_all_cases": "functional", "key": {"Kummerowia striata [1]": {"tested_on": "Kummerowia striata", "assay": "Herbicidal activity against Kummerowia striata assessed as killing at 2.5 g/a at 25 degC measured after 2 weeks"}, "[2]": {"tested_on": "Amaranthus blitum subsp. oleraceus", "assay": "Herbicidal activity against Amaranthus blitum subsp. oleraceus assessed as killing at 2.5 g/a at 25 degC measured after 2 weeks"}, "Cyperus difformis [3]": {"tested_on": "Cyperus difformis", "assay": "Herbicidal activity against Cyperus difformis assessed as killing at 10 g/a at 25 degC measured after 3 weeks"}, "Poa annua [4]": {"tested_on": "Poa annua", "assay": "Herbicidal activity against Poa annua assessed as killing at 10 g/a at 25 degC measured after 2 weeks"}, "Setaria viridis [5]": {"tested_on": "Setaria viridis", "assay": "Herbicidal activity against Setaria viridis (green foxtail) assessed as killing at 10 g/a at 25 degC measured after 2 weeks"}, "Pontederia vaginalis [6]": {"tested_on": "Pontederia vaginalis", "assay": "Herbicidal activity against Monochoria vaginalis assessed as killing at 10 g/a at 25 degC measured after 3 weeks"}, "Digitaria ciliaris [7]": {"tested_on": "Digitaria ciliaris", "assay": "Herbicidal activity against Digitaria ciliaris assessed as killing at 2.5 g/a at 25 degC measured after 2 weeks"}, "Digitaria ciliaris [8]": {"tested_on": "Digitaria ciliaris", "assay": "Herbicidal activity against Digitaria ciliaris assessed as killing at 10 g/a at 25 degC measured after 2 weeks"}, "[9]": {"assay": "Herbicidal activity against annual broad-leaf weeds assessed as killing at 10 g/a at 25 degC measured after 3 weeks"}, "Echinochloa oryzicola [10]": {"tested_on": "Echinochloa oryzicola", "assay": "Herbicidal activity against Echinochloa oryzicola assessed as killing at 1 g/a at 25 degC measured after 3 weeks"}, "[11]": {"assay": "Herbicidal activity against annual broad-leaf weeds assessed as killing at 1 g/a at 25 degC measured after 3 weeks"}, "[12]": {"tested_on": "Schoenoplectiella juncoides", "assay": "Herbicidal activity against Schoenoplectiella juncoides assessed as killing at 1 g/a at 25 degC measured after 3 weeks"}, "Setaria viridis [13]": {"tested_on": "Setaria viridis", "assay": "Herbicidal activity against Setaria viridis (green foxtail) assessed as killing at 2.5 g/a at 25 degC measured after 2 weeks"}, "Stellaria media [14]": {"tested_on": "Stellaria media", "assay": "Herbicidal activity against Stellaria media assessed as killing at 10 g/a at 25 degC measured after 2 weeks"}, "[15]": {"tested_on": "Amaranthus blitum subsp. oleraceus", "assay": "Herbicidal activity against Amaranthus blitum subsp. oleraceus assessed as killing at 10 g/a at 25 degC measured after 2 weeks"}, "Stellaria media [16]": {"tested_on": "Stellaria media", "assay": "Herbicidal activity against Stellaria media assessed as killing at 2.5 g/a at 25 degC measured after 2 weeks"}, "Kummerowia striata [17]": {"tested_on": "Kummerowia striata", "assay": "Herbicidal activity against Kummerowia striata assessed as killing at 10 g/a at 25 degC measured after 2 weeks"}, "Pontederia vaginalis [18]": {"tested_on": "Pontederia vaginalis", "assay": "Herbicidal activity against Monochoria vaginalis assessed as killing at 1 g/a at 25 degC measured after 3 weeks"}, "Poa annua [19]": {"tested_on": "Poa annua", "assay": "Herbicidal activity against Poa annua assessed as killing at 2.5 g/a at 25 degC measured after 2 weeks"}, "Echinochloa oryzicola [20]": {"tested_on": "Echinochloa oryzicola", "assay": "Herbicidal activity against Echinochloa oryzicola assessed as killing at 10 g/a at 25 degC measured after 3 weeks"}, "Cyperus difformis [21]": {"tested_on": "Cyperus difformis", "assay": "Herbicidal activity against Cyperus difformis assessed as killing at 1 g/a at 25 degC measured after 3 weeks"}, "[22]": {"tested_on": "Schoenoplectiella juncoides", "assay": "Herbicidal activity against Schoenoplectiella juncoides assessed as killing at 10 g/a at 25 degC measured after 3 weeks"}}, "data": [{"smiles": "COCCN(C(=O)CCl)C(=C(C)C)c1ccccc1", "values": [{"measurement": "Activity", "setting": "Kummerowia striata [1]", "result": 80, "unit": "%"}, {"measurement": "Activity", "setting": "[2]", "result": 60, "unit": "%"}, {"measurement": "Activity", "setting": "Cyperus difformis [3]", "result": 100, "unit": "%"}, {"measurement": "Activity", "setting": "Poa annua [4]", "result": 100, "unit": "%"}, {"measurement": "Activity", "setting": "Setaria viridis [5]", "result": 100, "unit": "%"}, {"measurement": "Activity", "setting": "Pontederia vaginalis [6]", "result": 100, "unit": "%"}, {"measurement": "Activity", "setting": "Digitaria ciliaris [7]", "result": 100, "unit": "%"}, {"measurement": "Activity", "setting": "Digitaria ciliaris [8]", "result": 100, "unit": "%"}, {"measurement": "Activity", "setting": "[9]", "result": 100, "unit": "%"}, {"measurement": "Activity", "setting": "Echinochloa oryzicola [10]", "result": 100, "unit": "%"}, {"measurement": "Activity", "setting": "[11]", "result": 100, "unit": "%"}, {"measurement": "Activity", "setting": "[12]", "result": 100, "unit": "%"}, {"measurement": "Activity", "setting": "Setaria viridis [13]", "result": 80, "unit": "%"}, {"measurement": "Activity", "setting": "Stellaria media [14]", "result": 80, "unit": "%"}, {"measurement": "Activity", "setting": "[15]", "result": 100, "unit": "%"}, {"measurement": "Activity", "setting": "Stellaria media [16]", "result": 60, "unit": "%"}, {"measurement": "Activity", "setting": "Kummerowia striata [17]", "result": 80, "unit": "%"}, {"measurement": "Activity", "setting": "Pontederia vaginalis [18]", "result": 100, "unit": "%"}, {"measurement": "Activity", "setting": "Poa annua [19]", "result": 100, "unit": "%"}, {"measurement": "Activity", "setting": "Echinochloa oryzicola [20]", "result": 100, "unit": "%"}, {"measurement": "Activity", "setting": "Cyperus difformis [21]", "result": 100, "unit": "%"}, {"measurement": "Activity", "setting": "[22]", "result": 100, "unit": "%"}]}]}
